Experimental data as given in US20030158250A1, “Agents correcting gene expression regulatory error” (priority 2000, published 2003).

Legend:
Type in all cases: cell-based
[1] = system: migration inhibitory factor-related protein-8 (MRP8); assay: RT-PCR expression level of MRP8 gene in monocytes; conditions: human monocytes, 30 PCR cycles
Experimental: (§1) Four-hundred milliliters of blood was collected from a human normal individual donor. The collected blood was diluted 2-folds with PBS(−), overlaid on Ficoll-paque (manufactured by Pharmacia), and centrifuged at 500×g for 20 minutes. The peripheral blood mononuclear cells (PBMCs) in the intermediate layer was collected with a pipette, and washed with RPMI 1640 medium (manufactured by Bio Whittaker). The collected PBMCs was suspended in a storage solution of 90% FCS (manufactured by JRH Biosciences)/10% dimethyl sulfoxide, and stored in liquid nitrogen. During the experiment, these stored PBMCs were rapidly melted in water bath at 37° C., and washed with RPMI 1640 medium containing 10 μg/ml Dnase (manufactured by Calbiochem). Thereafter, the number of living cells was calculated by trypan blue staining method, and subjected to each experiment.
(§2) PBMCs were suspended in RPMI 1640 medium containing 5% human serum of blood type-AB, 0.1 mM nonessential amino acid, 1 mM sodium pyruvate, 2 mM L-glutamine (hereinabove manufactured by Bio Whittaker), 10 mM HEPES (manufactured by nakalai tesque), and 1% streptomycin-penicillin (manufactured by Gibco BRL) (hereinafter simply referred to as “5HRPMI medium”) so as to have a concentration of 4×10^6 cells/ml. Thereafter, the suspension was spread on a 6-well cell culture plate (manufactured by Falcon) in a volume of 3 ml/well, and the cells were incubated in a wet-type incubator at 37° C. and 5% CO2 for 1.5 hours. After 1.5 hours, the non-adherent cells were removed by suction, and each well was washed with RPMI 1640 medium, and 2 ml of the 5HRPMI medium was added to the wells, to give monocytes.
(§3) To the monocytes obtained above was added in each well 8 μl of an aqueous DGE solution, or 8 μl of water as a control, and the cells were incubated in a wet-type incubator at 37° C. and 5% CO2 for 5 hours. Thereafter, with addition of 2 μl of a 1 μg/ml aqueous LPS solution or 2 μl of a 25 μM TPA dimethyl sulfoxide solution to each well, or with addition of neither of these substances thereto, the cells were cultured for additional 4 hours. Thereafter, RNA was prepared from each cell in accordance with the description of the kit using RNeasy Mini Kit (manufactured by QIAGEN, 74104). The group with addition of water alone or the aqueous DGE solution alone to the cells was set as a negative control, and the group with addition of water and the aqueous LPS solution or the aqueous TPA solution to the cells was set as a positive control.
(§4) A liquid mixture having a total volume of 60 μl of 0.5 μg of RNA prepared above, 10 mM Tris-HCl (pH 8.3), 50 mM KCl, 5 mM MgCl2, 1 mM dNTP mixtures, 150 pmol of Random 6 mers, 60 U Ribonuclease Inhibitor (manufactured by Takara Shuzo Co., Ltd., 2310A), and 15 U Reverse Transcriptase XL (AMV) (manufactured by Takara Shuzo Co., Ltd., 2620A) were incubated at 30° C. for 10 minutes and thereafter at 42° C. for 1 hour using a thermal cycler (GeneAmp PCR System 9600, manufactured by Applied Biosystems), and the mixture was heated at 99° C. for 5 minutes to deactivate the enzyme, to give cDNA.
(§5) Oligonucleotide primers for reaction of PCR were designed based on mRNA nucleotide sequence of each gene listed in the following tables, and synthesized in the same manner as above. In Tables 4 and 5, each gene evaluated in this Example, GenBank Accession NO, the name of oligonucleotide primers and SEQ ID NOs of the primers in Sequence Listing were listed. […]

[2] = system: transketolase (TK); assay: RT-PCR expression level of TK gene in monocytes; conditions: human monocytes, 30 PCR cycles
Experimental: as §1, §2, §3, §4, §5

[3] = system: GABA(A) receptor-associated protein (GABArp); assay: RT-PCR expression level of GABArp gene in monocytes; conditions: human monocytes, 30 PCR cycles
Experimental: as §1, §2, §3, §4, §5

[4] = system: interleukin-7 receptor (IL-7r); assay: RT-PCR expression level of IL-7r gene in monocytes; conditions: human monocytes, 30 PCR cycles
Experimental: as §1, §2, §3, §4, §5

[5] = system: interferon-inducible protein p78 (IFNp78); assay: RT-PCR expression level of IFNp78 gene in monocytes; conditions: human monocytes, 30 PCR cycles
Experimental: as §1, §2, §3, §4, §5

[6] = system: interleukin-6 (IL-6); assay: RT-PCR expression level of IL-6 gene in monocytes; conditions: human monocytes, 30 PCR cycles
Experimental: as §1, §2, §3, §4, §5

[7] = system: CD37 antigen (CD37); assay: RT-PCR expression level of CD37 gene in monocytes; conditions: human monocytes, 35 PCR cycles
Experimental: as §1, §2, §3, §4, §5

[8] = system: tumor necrosis factor α (TNFα); assay: RT-PCR expression level of TNFα gene in monocytes; conditions: human monocytes, 30 PCR cycles
Experimental: as §1, §2, §3, §4, §5

[9] = system: interferon-induced 17-kDa/15-kDa protein (IFNp15/p17); assay: RT-PCR expression level of IFNp15/p17 gene in monocytes; conditions: human monocytes, 30 PCR cycles
Experimental: as §1, §2, §3, §4, §5

[10] = system: macrophage inflammatory protein-2-β (MIP2β); assay: RT-PCR expression level of MIP2β gene in monocytes; conditions: human monocytes, 30 PCR cycles
Experimental: as §1, §2, §3, §4, §5

[11] = system: lyzozyme (Lyz); assay: RT-PCR expression level of Lyz gene in monocytes; conditions: human monocytes, 30 PCR cycles
Experimental: as §1, §2, §3, §4, §5

[12] = system: macrophage inflammatory protein-1-β (MIP1β); assay: RT-PCR expression level of MIP1β gene in monocytes; conditions: human monocytes, 30 PCR cycles
Experimental: as §1, §2, §3, §4, §5

[13] = system: liver and activation-regulated chemokine (LARC); assay: RT-PCR expression level of LARC gene in monocytes; conditions: human monocytes, 30 PCR cycles
Experimental: as §1, §2, §3, §4, §5

[14] = system: signal peptidase complex (18 kDa) (SPC18); assay: RT-PCR expression level of SPC18 gene in monocytes; conditions: human monocytes, 30 PCR cycles
Experimental: as §1, §2, §3, §4, §5

[15] = system: interleukin-1β (IL-1β); assay: RT-PCR expression level of IL-1β gene in monocytes; conditions: human monocytes, 30 PCR cycles
Experimental: as §1, §2, §3, §4, §5

[16] = system: Nef-associated factor-1 (NAF1); assay: RT-PCR expression level of NAF1 gene in monocytes; conditions: human monocytes, 30 PCR cycles
Experimental: as §1, §2, §3, §4, §5

[17] = L + D: DGE and LPS, LPS alone +/−
[18] = T + D: DGE and TPA, TPA alone +/−
[19] = substance added alone, Con. (water) +
[20] = T + D: DGE and TPA, TPA alone −
[21] = substance added alone, Con. (water) +/−
[22] = T + D: DGE and TPA, TPA alone +
[23] = L + D: DGE and LPS, LPS alone ++
[24] = L + D: DGE and LPS, LPS alone +++
[25] = substance added alone, Con. (water) −
[26] = T + D: DGE and TPA, TPA alone ++

**Q.** What does the source list for O=C1C=CC(CO)OC1O [DGE, L-glycero-1,5-epoxy-1αβ,6-dihydroxy-cis-hex-3-en-2-one]?
**A.** expression level of MRP8 gene [1, 17]: +; expression level of MRP8 gene [1, 18]: +; expression level of MRP8 gene [1, 19]: +; expression level of TK gene [2, 17]: +; expression level of TK gene [2, 20]: +; expression level of TK gene [2, 21]: +/−; expression level of GABArp gene [3, 17]: +; expression level of GABArp gene [3, 22]: +; expression level of GABArp gene [3, 19]: +; expression level of IL-7r gene [4, 23]: −; expression level of IL-7r gene [4, 20]: −; expression level of IL-7r gene [4, 21]: −; expression level of IFNp78 gene [5, 23]: −; expression level of IFNp78 gene [5, 22]: +/−; expression level of IFNp78 gene [5, 19]: +/−; expression level of IL-6 gene [6, 24]: −; expression level of IL-6 gene [6, 22]: −; expression level of IL-6 gene [6, 25]: −; expression level of CD37 gene ([7]; L + D: DGE and LPS, LPS alone −): +; expression level of CD37 gene [7, 18]: +/−; expression level of CD37 gene [7, 21]: +/−; expression level of TNFα gene [8, 23]: +/−; expression level of TNFα gene [8, 22]: +/−; expression level of TNFα gene [8, 21]: −; expression level of IFNp15/p17 gene [9, 24]: +/−; expression level of IFNp15/p17 gene [9, 22]: +/−; expression level of IFNp15/p17 gene [9, 19]: +; expression level of MIP2β gene [10, 23]: +; expression level of MIP2β gene [10, 26]: +; expression level of MIP2β gene [10, 19]: +; expression level of Lyz gene [11, 17]: +; expression level of Lyz gene [11, 18]: +; expression level of Lyz gene [11, 19]: +; expression level of MIP1β gene [12, 24]: +/−; expression level of MIP1β gene [12, 26]: +/−; expression level of MIP1β gene [12, 19]: +/−; expression level of LARC gene [13, 24]: +; expression level of LARC gene [13, 26]: +; expression level of LARC gene [13, 21]: +/−; expression level of SPC18 gene [14, 17]: +; expression level of SPC18 gene [14, 22]: +; expression level of SPC18 gene [14, 19]: +; expression level of IL-1β gene [15, 24]: +; expression level of IL-1β gene [15, 26]: +; expression level of IL-1β gene [15, 19]: +; expression level of NAF1 gene [16, 23]: +/−; expression level of NAF1 gene [16, 18]: −; expression level of NAF1 gene [16, 19]: −

**Q.** With “12-o-tetradecanoylphorbol 13-acetate [TPA, reference compound]” as the compound, how does the “expression level of MRP8 gene” value [1, 19] read?
**A.** Its value is “+/−”.

**Q.** What about the “expression level of TK gene” value [2, 21] of the same compound?
**A.** The value was “−”.

**Q.** What about the “expression level of GABArp gene” value [3, 19] of the same compound?
**A.** The value was “+”.

**Q.** And the “expression level of IL-7r gene” value [4, 21]?
**A.** The value was “−”.

**Q.** What about the “expression level of IFNp78 gene” value [5, 19] of the same compound?
**A.** Its value is “+”.

**Q.** And the “expression level of IL-6 gene” value [6, 25]?
**A.** The value was “+”.

**Q.** What about the “expression level of CD37 gene” value [7, 21] of the same compound?
**A.** The value was “+/−”.

**Q.** And the “expression level of TNFα gene” value [8, 21]?
**A.** Its value is “+”.

**Q.** And the “expression level of IFNp15/p17 gene” value [9, 19]?
**A.** The value was “+”.

**Q.** And the “expression level of MIP2β gene” value [10, 19]?
**A.** The value was “++”.

**Q.** And the “expression level of Lyz gene” value [11, 19]?
**A.** Its value is “+/−”.

**Q.** And the “expression level of MIP1β gene” value [12, 19]?
**A.** The value was “++”.

**Q.** What about the “expression level of LARC gene” value [13, 21] of the same compound?
**A.** Its value is “++”.

**Q.** What about the “expression level of SPC18 gene” value [14, 19] of the same compound?
**A.** The value was “+”.

**Q.** And the “expression level of IL-1β gene” value [15, 19]?
**A.** Its value is “++”.

**Q.** And the “expression level of NAF1 gene” value [16, 19]?
**A.** The value was “+/−”.

**Q.** With “lipopolysaccharide [LPS, reference compound]” as the compound, how does the “expression level of MRP8 gene” value [1, 19] read?
**A.** Its value is “+/−”.

**Q.** And the “expression level of TK gene” value [2, 21]?
**A.** Its value is “+/−”.

**Q.** What about the “expression level of GABArp gene” value [3, 19] of the same compound?
**A.** The value was “+/−”.

**Q.** And the “expression level of IL-7r gene” value [4, 21]?
**A.** Its value is “++”.

**Q.** What about the “expression level of IFNp78 gene” value [5, 19] of the same compound?
**A.** The value was “++”.

**Q.** What about the “expression level of IL-6 gene” value [6, 25] of the same compound?
**A.** The value was “+++”.

**Q.** And the “expression level of CD37 gene” value [7, 21]?
**A.** The value was “−”.

**Q.** And the “expression level of TNFα gene” value [8, 21]?
**A.** Its value is “++”.

**Q.** And the “expression level of IFNp15/p17 gene” value [9, 19]?
**A.** Its value is “+++”.

**Q.** And the “expression level of MIP2β gene” value [10, 19]?
**A.** Its value is “++”.

**Q.** And the “expression level of Lyz gene” value [11, 19]?
**A.** Its value is “+/−”.

**Q.** What about the “expression level of MIP1β gene” value [12, 19] of the same compound?
**A.** Its value is “+++”.

**Q.** What about the “expression level of LARC gene” value [13, 21] of the same compound?
**A.** The value was “+++”.

**Q.** And the “expression level of SPC18 gene” value [14, 19]?
**A.** The value was “+/−”.

**Q.** And the “expression level of IL-1β gene” value [15, 19]?
**A.** The value was “+++”.

**Q.** What about the “expression level of NAF1 gene” value [16, 19] of the same compound?
**A.** The value was “++”.
